Laboratory results as given in ChEMBL document CHEMBL1201862, “PubChem BioAssay data set” (2004).
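Results reflect a 48-hour exposure of cells in 96-well plates to compound at five concentrations. GI50: concentration for 50% inhibition of growth.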 Activity calls are given as the source filed them. Rule as the data show it: active = GI50 up to about 1.1 µM and inactive = higher.

Tests used:
Assay in all cases: inhibition of tumour cell growth, NCI panel, 48 h
KM-20L2 = tested on: KM-20L2
M19-MEL = tested on: M19-MEL
HOP-18 = tested on: HOP-18
DMS-114 = tested on: DMS-114
DLD-1 = tested on: DLD-1
SNB-78 = tested on: SNB-78
XF498 = tested on: XF498
LXFL 529 = tested on: LXFL 529
RXF 631 = tested on: RXF 631

Measured: GI50

Cn1c2ccccc2c2ccc3c(c21)C(=O)C=CC3=O
inactive: KM-20L2 17.1 µM | M19-MEL 10.5 µM | HOP-18 2 µM | DMS-114 8.26 µM | DLD-1 2.3 µM | SNB-78 21.1 µM | XF498 2.15 µM | LXFL 529 2.95 µM

O=C(O)c1ccc([N+](=O)[O-])c2c(=O)c3ccccc3[nH]c12
inactive: KM-20L2 > 100 µM | M19-MEL > 100 µM | HOP-18 > 100 µM | DMS-114 > 100 µM | DLD-1 > 100 µM | SNB-78 > 100 µM | LXFL 529 > 100 µM | RXF 631 > 100 µM

CN(CC(=O)O)S(=O)(=O)c1ccc(F)cc1
inactive: KM-20L2 > 100 µM | M19-MEL > 100 µM | HOP-18 > 100 µM | DLD-1 > 100 µM | XF498 > 100 µM | LXFL 529 > 100 µM | RXF 631 > 100 µM

C/C(CC(=O)Nc1ccc(Cl)c(Cl)c1)=N/NC(=O)C[n+]1ccccc1
inactive: KM-20L2 76.9 µM | M19-MEL > 100 µM | HOP-18 > 100 µM | DMS-114 28.4 µM | SNB-78 > 100 µM | XF498 > 100 µM | LXFL 529 66.7 µM

O=C(Nc1nc2ccc([N+](=O)[O-])cc2s1)C(=O)C(C1OC(=O)c2ccccc21)[N+](=O)[O-] (centres undefined)
inactive: KM-20L2 > 100 µM | M19-MEL > 100 µM | DLD-1 64.6 µM | SNB-78 85.5 µM | XF498 27.6 µM | LXFL 529 85.1 µM | RXF 631 70.1 µM

COc1cc(C2C(C(=O)Nc3cc(F)c(F)cc3F)=C(C)NC(C)=C2C(=O)Nc2cc(F)c(F)cc2F)ccc1O
inactive: KM-20L2 32 µM | M19-MEL 23.4 µM | DMS-114 14 µM | DLD-1 21.5 µM | SNB-78 22.5 µM | XF498 4.66 µM | LXFL 529 21.5 µM | RXF 631 15 µM

Cc1cc(Cl)ccc1N1C(=O)C(=O)C(c2nc3ccccc3o2)C(=O)C1=O
inactive: KM-20L2 > 100 µM | M19-MEL > 100 µM | HOP-18 > 100 µM | DMS-114 68.9 µM | DLD-1 32.9 µM | SNB-78 > 100 µM | XF498 > 100 µM | LXFL 529 71.3 µM

Cc1ccc(Cl)c(NC(=O)C(=O)C(C(=O)c2ccncc2)C2OC(=O)c3ccccc32)c1 (centres undefined)
inactive: M19-MEL > 100 µM | HOP-18 > 100 µM | DMS-114 > 100 µM | DLD-1 > 100 µM | SNB-78 > 100 µM | XF498 > 100 µM | LXFL 529 > 100 µM | RXF 631 > 100 µM

CC(C(=O)[O-])S(=O)(=O)O.CCc1c2cc(OC)c(OC)cc2cc2c3cc(OC)c(OC)cc3cc[n+]12
inactive: KM-20L2 > 100 µM | M19-MEL 13.6 µM | HOP-18 68.1 µM | DMS-114 7.83 µM | DLD-1 65 µM | SNB-78 33.7 µM | XF498 5.64 µM | LXFL 529 5.09 µM

COc1ccc2oc(-c3cc4cc(OC)ccc4o3)cc2c1
inactive: KM-20L2 > 100 µM | DLD-1 > 100 µM | SNB-78 > 100 µM | XF498 > 100 µM | LXFL 529 > 100 µM | RXF 631 > 100 µM

CC(=O)OC1COC(N2C(=O)C(=O)c3cc(Br)c([N+](=O)[O-])cc32)C(OC(C)=O)C1OC(C)=O (centres undefined)
inactive: KM-20L2 > 100 µM | M19-MEL 21.2 µM | HOP-18 > 100 µM | DMS-114 24.7 µM | DLD-1 34.4 µM | SNB-78 > 100 µM | XF498 35.9 µM | LXFL 529 50.8 µM | RXF 631 48.5 µM

COc1ccc(C2ON(c3ccccc3)CC=C2C)cc1 (centres undefined)
inactive: KM-20L2 5.48 µM | M19-MEL 43.2 µM | DLD-1 79.8 µM | SNB-78 > 100 µM | XF498 95.7 µM | LXFL 529 66.8 µM | RXF 631 46.6 µM

CCN(CC)c1ccc(/N=N/c2ccc([N+](=O)[O-])cc2OC(=O)/C=C/c2ccccc2)c(OC(=O)/C=C/c2ccccc2)c1
inactive: M19-MEL 5 µM | HOP-18 1.7 µM | DMS-114 3.49 µM | DLD-1 4.18 µM | SNB-78 > 100 µM | XF498 6.82 µM | LXFL 529 21.5 µM | RXF 631 > 100 µM

O=c1cccccc1NCCCNc1cccccc1=O
inactive: KM-20L2 > 100 µM | M19-MEL > 100 µM | DMS-114 > 100 µM | SNB-78 > 100 µM | XF498 > 100 µM | LXFL 529 > 100 µM | RXF 631 31 µM

COc1ccc(-c2cc(=O)c3ccccc3o2)cc1N
inactive: KM-20L2 34.1 µM | M19-MEL 86.1 µM | HOP-18 17.7 µM | DMS-114 34 µM | SNB-78 68.4 µM | XF498 18.2 µM | LXFL 529 35.7 µM | RXF 631 42.3 µM

CCc1ccccc1NC(=O)/C(CC(=O)c1c(C)[n+]([O-])c2ccccc2[n+]1[O-])=N\NS(=O)(=O)c1ccc(C)cc1
inactive: KM-20L2 > 100 µM | M19-MEL 16 µM | DMS-114 12.3 µM | DLD-1 24 µM | SNB-78 33.7 µM | LXFL 529 26.3 µM | RXF 631 > 100 µM

Cc1ccc(NC(=O)CCc2nnc3s/c(=C\c4cccc([N+](=O)[O-])c4)c(=O)n23)cc1
inactive: KM-20L2 > 100 µM | M19-MEL > 100 µM | HOP-18 > 100 µM | DMS-114 > 100 µM | DLD-1 > 100 µM | SNB-78 > 100 µM | XF498 > 100 µM | LXFL 529 > 100 µM | RXF 631 60 µM

CC(C)(C)C1CCP(=O)(c2ccccc2)CC1 (centres undefined)
inactive: KM-20L2 > 100 µM | M19-MEL > 100 µM | HOP-18 > 100 µM | DMS-114 > 100 µM | DLD-1 > 100 µM | SNB-78 > 100 µM | XF498 2.1 µM | LXFL 529 > 100 µM

O=C1OC(c2ccccc2)C2CC3CC4(CCC3CN12)OCCO4 (centres undefined)
inactive: KM-20L2 > 100 µM | SNB-78 > 100 µM | XF498 70.8 µM | LXFL 529 32.7 µM | RXF 631 > 100 µM

C[n+]1cccc(NC(=O)c2ccc(NC(=O)C34CCC(C(=O)Nc5ccc(C(=O)Nc6ccc[n+](C)c6)cc5)(CC3)CC4)cc2)c1
inactive: KM-20L2 > 100 µM | M19-MEL 54.1 µM | HOP-18 25.2 µM | DMS-114 13.8 µM | DLD-1 10.9 µM | SNB-78 > 100 µM | LXFL 529 2.81 µM

Cc1ccc(NC(=O)c2cccc([N+](=O)[O-])c2O)c([N+](=O)[O-])c1
inactive: KM-20L2 18.7 µM | M19-MEL 14.3 µM | HOP-18 19.2 µM | DMS-114 12.6 µM | DLD-1 14.9 µM | SNB-78 19.4 µM | XF498 20.8 µM | LXFL 529 13 µM | RXF 631 12.3 µM
